Data set [1] relates to HepG2 cancer cells. The experiment in a line: Anticancer activity, cell viability by CCK-8, HepG2. Format: cell-based. Conditions: HepG2, 10 μM, 72 hours. The protocol:
(§1) Compounds 1 to 119 synthesized in Example 1 according to the present disclosure were assayed for inhibitory activity against MLK3/LRRK2 enzymes and anticancer activity against HepG2/H[…] cancer cells, and the results are summarized in Table 1, below. Assay for anticancer activity was conducted as follows. HepG2 and H[…] cancer cells were purchased from the Korean Cell Line Bank and cultured according to the instruction provided thereby. One hundred μL of a culture of the cells were seeded at a density of 4,000 cells/well into 96-well plates. After 24 hours, the cells were treated with the compounds for 72 hours. Then, cell viability was assayed using CCK-8 and expressed as % of the control.

Data set [2] addresses T1, human recombinant LRRK2 protein (Homo sapiens, UniProt Q5S007).
T1 construct: purchased Eurofins
The experiment in a line: LRRK2 kinase activity assay (Eurofins, gamma-33P-ATP, filtermat scintillation counting). Particulars: human recombinant LRRK2, 40 minutes at room temperature. Format: biochemical. The protocol:
(§2) Compounds 1 to 119 synthesized in Example 1 according to the present disclosure were assayed for inhibitory activity against MLK3/LRRK2 enzymes and anticancer activity against HepG2/HS746T cancer cells, and the results are summarized in Table 1, below.
(§3) Inhibitory activity against MLK3 and LRRK2 enzymes was evaluated in Eurofins. In brief, human recombinant MLK3 protein was mixed with the compounds in a reaction buffer (8 mM MOPS (pH 7.0), 0.2 mM EDTA, 0.33 mg/mL myelin basic protein, 5 mM DTT) to which a mixture of 10 mM magnesium acetate and gamma-33P-ATP was then added before incubation at room temperature for 120 minutes. Afterward, the reaction was terminated with 0.5% phosphoric acid. Ten μL of the total mixture was spotted onto a P30 filtermat which was then washed four times for 4 minutes with 0.425% phosphoric acid and once in methanol prior to scintillation counting. Values for the activity of MLK3 were expressed as % of the control. For the activity of LRRK2, human recombinant LRRK2 protein was mixed with the compounds in a reaction buffer (50 mM HEPES (pH 8.0), 0.2 mM EDTA, 0.01% Brij-35, 1% (w/v) BSA, 5 mM DTT, 250 uM substrate peptide RLGRDKYKTLRQIRQ) and then reacted with a mixture of 10 mM magnesium acetate and gamma-33P-ATP at room temperature for 40 minutes. Afterward, the reaction was terminated with 0.5% phosphoric acid. Ten μL of the total mixture was spotted onto a P30 filtermat which was then washed four times for 4 minutes with 0.425% phosphoric acid and once in methanol prior to scintillation counting. Values for the activity of LRRK2 were expressed as % of the control.

In data set [3] the target is T2, human recombinant MLK3 protein (Homo sapiens, UniProt Q16584).
T2 construct: purchased Eurofins
Description: MLK3 kinase activity assay (Eurofins, gamma-33P-ATP, filtermat scintillation counting). It is filed as biochemical. Particulars: human recombinant MLK3, 120 minutes at room temperature. As to the method: as §2, §3

The subject of data set [4] is HS746T cancer cells. Description: Anticancer activity, cell viability by CCK-8, HS746T. It is filed as cell-based. Particulars: 72 hours. As to the method: as §1

T1 sequence (Q5S007 whole entry): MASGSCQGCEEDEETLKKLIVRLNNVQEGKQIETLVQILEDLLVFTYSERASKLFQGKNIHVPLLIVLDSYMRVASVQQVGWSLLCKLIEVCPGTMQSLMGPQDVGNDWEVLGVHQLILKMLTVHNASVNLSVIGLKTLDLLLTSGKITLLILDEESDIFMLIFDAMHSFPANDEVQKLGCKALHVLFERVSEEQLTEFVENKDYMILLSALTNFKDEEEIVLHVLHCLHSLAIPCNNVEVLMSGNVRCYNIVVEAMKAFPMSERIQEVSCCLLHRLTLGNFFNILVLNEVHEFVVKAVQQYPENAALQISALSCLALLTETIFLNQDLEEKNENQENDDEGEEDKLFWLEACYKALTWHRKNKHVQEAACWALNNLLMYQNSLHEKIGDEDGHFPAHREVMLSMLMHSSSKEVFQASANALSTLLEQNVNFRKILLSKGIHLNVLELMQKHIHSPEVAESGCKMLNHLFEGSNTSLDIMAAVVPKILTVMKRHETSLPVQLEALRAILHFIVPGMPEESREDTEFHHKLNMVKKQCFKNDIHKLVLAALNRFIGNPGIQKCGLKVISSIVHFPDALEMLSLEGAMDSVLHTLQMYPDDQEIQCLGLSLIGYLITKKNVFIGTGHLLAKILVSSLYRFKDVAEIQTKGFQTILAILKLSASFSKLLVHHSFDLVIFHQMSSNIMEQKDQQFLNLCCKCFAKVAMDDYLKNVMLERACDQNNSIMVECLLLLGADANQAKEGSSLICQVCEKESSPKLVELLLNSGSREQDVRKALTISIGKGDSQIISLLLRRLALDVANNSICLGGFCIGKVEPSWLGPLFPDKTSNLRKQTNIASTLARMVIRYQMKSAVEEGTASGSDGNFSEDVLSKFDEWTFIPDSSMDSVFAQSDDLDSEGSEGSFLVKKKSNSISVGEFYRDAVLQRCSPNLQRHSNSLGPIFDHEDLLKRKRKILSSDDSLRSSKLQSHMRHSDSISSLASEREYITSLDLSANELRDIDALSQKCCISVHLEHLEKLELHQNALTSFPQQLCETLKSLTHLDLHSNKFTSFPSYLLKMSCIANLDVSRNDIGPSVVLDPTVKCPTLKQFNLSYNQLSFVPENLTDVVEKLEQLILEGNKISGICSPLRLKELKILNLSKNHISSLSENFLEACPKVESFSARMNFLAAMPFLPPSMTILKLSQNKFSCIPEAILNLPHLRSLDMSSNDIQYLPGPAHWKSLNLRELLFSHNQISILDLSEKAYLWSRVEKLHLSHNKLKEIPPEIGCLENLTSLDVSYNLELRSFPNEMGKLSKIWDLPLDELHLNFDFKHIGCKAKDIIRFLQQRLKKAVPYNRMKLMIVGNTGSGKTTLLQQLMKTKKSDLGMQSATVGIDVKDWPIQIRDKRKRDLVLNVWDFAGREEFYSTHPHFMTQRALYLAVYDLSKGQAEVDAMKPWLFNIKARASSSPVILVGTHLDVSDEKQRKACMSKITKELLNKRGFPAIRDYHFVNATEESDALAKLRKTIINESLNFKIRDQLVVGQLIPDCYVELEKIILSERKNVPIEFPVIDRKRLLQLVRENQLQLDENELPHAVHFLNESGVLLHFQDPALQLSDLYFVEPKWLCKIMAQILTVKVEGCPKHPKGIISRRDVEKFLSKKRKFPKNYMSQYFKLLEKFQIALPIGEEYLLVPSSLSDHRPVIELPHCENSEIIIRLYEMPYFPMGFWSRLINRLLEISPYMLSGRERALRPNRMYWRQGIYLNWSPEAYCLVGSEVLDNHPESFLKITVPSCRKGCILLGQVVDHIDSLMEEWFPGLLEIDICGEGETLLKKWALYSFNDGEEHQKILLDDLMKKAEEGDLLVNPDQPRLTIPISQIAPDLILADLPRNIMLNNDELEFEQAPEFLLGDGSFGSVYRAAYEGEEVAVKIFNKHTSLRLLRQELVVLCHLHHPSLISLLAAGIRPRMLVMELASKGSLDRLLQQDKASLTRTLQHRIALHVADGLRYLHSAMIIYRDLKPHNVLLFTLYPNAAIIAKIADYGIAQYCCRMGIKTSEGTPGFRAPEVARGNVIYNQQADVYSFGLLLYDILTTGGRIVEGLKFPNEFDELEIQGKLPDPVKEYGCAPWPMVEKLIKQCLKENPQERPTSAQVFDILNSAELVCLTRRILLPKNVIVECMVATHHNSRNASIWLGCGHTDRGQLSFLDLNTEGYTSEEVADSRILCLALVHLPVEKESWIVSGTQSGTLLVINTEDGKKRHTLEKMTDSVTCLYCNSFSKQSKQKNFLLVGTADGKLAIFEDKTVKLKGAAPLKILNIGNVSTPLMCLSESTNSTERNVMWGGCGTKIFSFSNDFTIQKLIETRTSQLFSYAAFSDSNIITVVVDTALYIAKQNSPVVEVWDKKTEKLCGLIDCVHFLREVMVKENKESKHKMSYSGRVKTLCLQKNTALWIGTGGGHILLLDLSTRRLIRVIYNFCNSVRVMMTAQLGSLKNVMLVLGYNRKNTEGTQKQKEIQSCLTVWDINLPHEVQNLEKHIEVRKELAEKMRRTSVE
T2 sequence (Q16584 whole entry): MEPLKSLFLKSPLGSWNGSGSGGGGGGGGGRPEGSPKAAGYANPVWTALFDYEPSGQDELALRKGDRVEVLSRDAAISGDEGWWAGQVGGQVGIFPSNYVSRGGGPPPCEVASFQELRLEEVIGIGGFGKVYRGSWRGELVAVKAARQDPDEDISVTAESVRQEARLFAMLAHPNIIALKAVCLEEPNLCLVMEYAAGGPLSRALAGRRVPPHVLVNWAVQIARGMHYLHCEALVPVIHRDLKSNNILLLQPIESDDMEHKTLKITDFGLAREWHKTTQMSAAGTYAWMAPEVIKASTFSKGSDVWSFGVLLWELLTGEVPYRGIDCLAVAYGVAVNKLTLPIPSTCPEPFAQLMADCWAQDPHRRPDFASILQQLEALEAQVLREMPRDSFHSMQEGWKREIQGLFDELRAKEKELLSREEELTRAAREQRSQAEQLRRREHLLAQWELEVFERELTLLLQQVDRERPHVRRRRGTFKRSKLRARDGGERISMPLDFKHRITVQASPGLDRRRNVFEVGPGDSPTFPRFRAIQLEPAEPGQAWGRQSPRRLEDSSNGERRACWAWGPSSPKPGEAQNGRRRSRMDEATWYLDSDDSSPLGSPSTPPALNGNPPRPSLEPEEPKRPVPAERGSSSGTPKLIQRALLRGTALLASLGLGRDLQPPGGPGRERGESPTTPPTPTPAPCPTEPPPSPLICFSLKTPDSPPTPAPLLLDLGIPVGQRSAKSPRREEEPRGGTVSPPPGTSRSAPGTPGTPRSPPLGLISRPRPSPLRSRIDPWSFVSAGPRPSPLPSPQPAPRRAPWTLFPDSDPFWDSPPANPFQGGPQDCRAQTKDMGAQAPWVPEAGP

Consider `CC1(C)c2cc(Nc3ncc(Cl)c(Nc4ccccc4P(C)(C)=O)n3)ccc2CCN1C(=O)C(F)(F)F` [compound 42, 1-(7-((5-Chloro-4-((2-(dimethylphosphoryl)phenyl)amino)pyrimidin-2-yl)amino)-1,1-dimethyl-3,4-dihydroisoquinolin-2(1H)-yl)-2,2,2-trifluoroethan-1-one], for which, in data set [1], the “Cell viability (% of Con. 10 μM) HepG2” value is listed as 48 % of Con. Further, the IC50 in data set [2] and in data set [3] was 1 to 10 nM each time. In addition, the “Cell viability (% of Con. 10 μM) HS746T” value in data set [4] is recorded as 30 % of Con.
Regarding `CP(C)(=O)c1ccccc1Nc1nc(Nc2ccc3c(c2)CCN(C(=O)C(F)(F)F)C3)ncc1Cl` [compound 48, 1-(6-((5-Chloro-4-((2-(dimethylphosphoryl)phenyl)amino)pyrimidin-2-yl)amino)-3,4-dihydroisoquinolin-2(1H)-yl)-2,2,2-trifluoroethan-1-one], in data set [1], the “Cell viability (% of Con. 10 μM) HepG2” value is reported as 37 % of Con. In addition, the IC50 in data set [2] and in data set [3] was 1 to 10 nM in each case. For the same compound, the “Cell viability (% of Con. 10 μM) HS746T” value in data set [4] is 9 % of Con.
Consider `CP(C)(=O)c1ccccc1Nc1nc(Nc2ccc3[nH]nc(-c4ccc(CO)o4)c3c2)ncc1Cl` [compound 101, (2-((5-chloro-2-((3-(5-(hydroxymethyl)furan-2-yl)-1H-indazol-5-yl)amino)pyrimidin-4-yl)amino)phenyl)dimethylphosphine oxide], for which the “Cell viability (% of Con. 10 μM) HepG2” value in data set [1] was 56 % of Con. For the same compound, the IC50 lay in the range of 10 to 100 nM in data set [2] and 1 to 10 nM in data set [3]. In addition, the “Cell viability (% of Con. 10 μM) HS746T” value in data set [4] is given as 13 % of Con.
Regarding `CC1(C)CCC(C)(C)c2cc(Nc3ncc(Cl)c(Nc4ccccc4P(C)(C)=O)n3)ccc21` [compound 7, (2-((5-Chloro-2-((5,5,8,8-tetramethyl-5,6,7,8-tetrahydronaphthalen-2-yl)amino)pyrimidin-4-yl)amino)phenyl)dimethylphosphine oxide], the “Cell viability (% of Con. 10 μM) HepG2” value in data set [1] is recorded as 75 % of Con. Moreover, the IC50 in data set [2] and in data set [3] was 100 to 1000 nM in each case. The “Cell viability (% of Con. 10 μM) HS746T” value in data set [4] was 103 % of Con.
For `CP(C)(=O)c1ccccc1Nc1nc(Nc2ccc3nc(S)sc3c2)ncc1Cl` [compound 23, (2-((5-Chloro-2-((2-mercaptobenzo[d]thiazol-6-yl)amino)pyrimidin-4-yl)amino)phenyl)dimethylphosphine oxide], the “Cell viability (% of Con. 10 μM) HepG2” value in data set [1] is 27 % of Con. The IC50 in data set [2] and in data set [3] was 10 to 100 nM in each case. Moreover, the “Cell viability (% of Con. 10 μM) HS746T” value in data set [4] was 26 % of Con.
Take `CP(C)(=O)c1ccccc1Nc1nc(Nc2ccc3c(c2)CN(C(=O)C(F)(F)F)C3)ncc1Cl` [compound 72, 1-(5-((5-Chloro-4-((2-(dimethylphosphoryl)phenyl)amino)pyrimidin-2-yl)amino)isoindolin-2-yl)-2,2,2-trifluoroethan-1-one]: the “Cell viability (% of Con. 10 μM) HepG2” value in data set [1] is on record as 35 % of Con. Moreover, the IC50 lay in the range of 1 to 10 nM in data set [2] and 10 to 100 nM in data set [3]. The “Cell viability (% of Con. 10 μM) HS746T” value in data set [4] was 9 % of Con.
On the same counts, the results for `CP(C)(=O)c1ccccc1Nc1nc(Nc2ccc3[nH]nc(-c4ccncc4)c3c2)ncc1Cl` [compound 104, (2-((5-Chloro-2-((3-(pyridin-4-yl)-1H-indazol-5-yl)amino)pyrimidin-4-yl)amino)phenyl)dimethylphosphine oxide] are 30 % of Con, 1 to 10 nM, 1 to 10 nM and 11 % of Con.
On the same counts, the results for `CP(C)(=O)c1ccccc1Nc1nc(Nc2ccc3[nH]nc(-c4cccc(C#N)c4)c3c2)ncc1Cl` [compound 116, 3-(5-((5-Chloro-4-((2-(dimethylphosphoryl)phenyl)amino)pyrimidin-2-yl)amino)-1H-indazol-3-yl)benzonitrile] are 32 % of Con, 10 to 100 nM, 1 to 10 nM and 19 % of Con.
With `CP(C)(=O)c1ccccc1Nc1nc(Nc2ccc3c(c2)CN(C(=O)C(F)(F)F)CC3)ncc1Cl` [compound 46, 1-(7-((5-Chloro-4-((2-(dimethylphosphoryl)phenyl)amino)pyrimidin-2-yl)amino)-3,4-dihydroisoquinolin-2(1H)-yl)-2,2,2-trifluoroethan-1-one], the “Cell viability (% of Con. 10 μM) HepG2” value in data set [1] is on record as 26 % of Con. The IC50 in data set [2] and in data set [3] was 1 to 10 nM each time. Further, in data set [4], the “Cell viability (% of Con. 10 μM) HS746T” value is 13 % of Con.
For the compound `Cc1ccc(Nc2ncc(Cl)c(Nc3ccccc3P(C)(C)=O)n2)c2[nH]cc(C#N)c12` [compound 70, 7-((5-chloro-4-((2-(dimethylphosphoryl)phenyl)amino)pyrimidin-2-yl)amino)-4-methyl-1H-indole-3-carbonitrile], the “Cell viability (% of Con. 10 μM) HepG2” value in data set [1] is 30 % of Con. Also, the IC50 in data set [2] is 1 to 10 nM; in data set [3], 10 to 100 nM. The “Cell viability (% of Con. 10 μM) HS746T” value in data set [4] is recorded as 25 % of Con.
On to `CP(C)(=O)c1ccccc1Nc1nc(Nc2ccc3c(c2)C(=O)NCC3)ncc1Cl` [compound 41, 7-((5-Chloro-4-((2-(dimethylphosphoryl)phenyl)amino)pyrimidin-2-yl)amino)-3,4-dihydroisoquinolin-1(2H)-one], for which, in data set [1], the “Cell viability (% of Con. 10 μM) HepG2” value is on record as 26 % of Con. Also, the IC50 in data set [2] was 10 to 100 nM; in data set [3] it was 1 to 10 nM. Also, the “Cell viability (% of Con. 10 μM) HS746T” value in data set [4] was 33 % of Con.
With `CP(C)(=O)c1ccccc1Nc1nc(Nc2ccc3c(c2)CCNC3)ncc1Cl` [compound 49, (2-((5-Chloro-2-((1,2,3,4-tetrahydroisoquinolin-6-yl)amino)pyrimidin-4-yl)amino)phenyl)dimethylphosphine oxide], the “Cell viability (% of Con. 10 μM) HepG2” value in data set [1] is listed as 31 % of Con. For the same compound, the IC50 in data set [2] and in data set [3] was 1 to 10 nM each time. In addition, the “Cell viability (% of Con. 10 μM) HS746T” value in data set [4] is reported as 0.3 % of Con.
On to `CP(C)(=O)c1ccccc1Nc1nc(Nc2ccc3[nH]ncc3c2)ncc1Cl` [compound 66, (2-((2-((1H-Indazol-5-yl)amino)-5-chloropyrimidin-4-yl)amino)phenyl)dimethylphosphine oxide], for which the “Cell viability (% of Con. 10 μM) HepG2” value in data set [1] is 31 % of Con. The IC50 in data set [2] and in data set [3] was 1 to 10 nM each time. Also, in data set [4], the “Cell viability (% of Con. 10 μM) HS746T” value is listed as 22 % of Con.
With `CC(C)Oc1cc(F)cc(-c2n[nH]c3ccc(Nc4ncc(Cl)c(Nc5ccccc5P(C)(C)=O)n4)cc23)c1` [compound 115, (2-((5-Chloro-2-((3-(3-fluoro-5-isopropoxyphenyl)-1H-indazol-5-yl)amino)pyrimidin-4-yl)amino)phenyl)dimethylphosphine oxide], the “Cell viability (% of Con. 10 μM) HepG2” value in data set [1] was 50 % of Con. In addition, the IC50 in data set [2] and in data set [3] was 1 to 10 nM throughout. The “Cell viability (% of Con. 10 μM) HS746T” value in data set [4] is reported as 10 % of Con.
As for `CP(C)(=O)c1ccccc1Nc1nc(Nc2ccc3[nH]nc(-c4ccccc4)c3c2)ncc1Cl` [compound 96, (2-((5-chloro-2-((3-phenyl-1H-indazol-5-yl)amino)pyrimidin-4-yl)amino)phenyl)dimethylphosphine oxide], the “Cell viability (% of Con. 10 μM) HepG2” value in data set [1] is 15 % of Con. Moreover, the concentration for half-maximal inhibition (IC50) in data set [2] and in data set [3] was 1 to 10 nM throughout. Also, the “Cell viability (% of Con. 10 μM) HS746T” value in data set [4] was 10 % of Con.

(Values after US20240270698A2, “NOVEL PYRIMIDINE DERIVATIVE AND USE THEREOF” (KOREA RESEARCH INSTITUTE OF CHEMICAL TECHNOLOGY, priority 2019, published 2024).)
